Activity calls are given as the source filed them. The rule behind the calls is not given here.
Test system: CCRIS mutagenicity, Ames/micronucleus/aberration tests
Assay: CCRIS mutagenicity studies
[1] = Test System: MOUSE LYMPHOMA, Strain/Indicator: L5178Y (TK+/TK-), Metabolic Activation: NONE, Method: SUSPENSION/PLATE
[2] = Test System: MOUSE LYMPHOMA, Strain/Indicator: L5178Y (TK+/TK-), Metabolic Activation: RAT, LIVER, S-9, AROCLOR 1254, Method: SUSPENSION/PLATE

## Clc1nc(Cl)nc(Nc2ccccc2Cl)n1
Test System: AMES SALMONELLA TYPHIMURIUM, Strain/Indicator: TA97, Metabolic Activation: HAMSTER, LIVER, S-9, AROCLOR 1254 (10 OR 30%), Method: PREINCUBATION
  mutagenic call: inactive; negative
Test System: AMES SALMONELLA TYPHIMURIUM, Strain/Indicator: TA97, Metabolic Activation: RAT, LIVER, S-9, AROCLOR 1254 (10 OR 30%), Method: PREINCUBATION
  mutagenic call: inactive; negative
Test System: AMES SALMONELLA TYPHIMURIUM, Strain/Indicator: TA98, Metabolic Activation: HAMSTER, LIVER, S-9, AROCLOR 1254 (10%), Method: PREINCUBATION
  mutagenic call: inactive; negative
Test System: AMES SALMONELLA TYPHIMURIUM, Strain/Indicator: TA98, Metabolic Activation: HAMSTER, LIVER, S-9, AROCLOR 1254 (30%), Method: PREINCUBATION
  mutagenic call: inactive; negative
Test System: AMES SALMONELLA TYPHIMURIUM, Strain/Indicator: TA98, Metabolic Activation: RAT, LIVER, S-9, AROCLOR 1254 (10%), Method: PREINCUBATION
  mutagenic call: inactive; negative
Test System: AMES SALMONELLA TYPHIMURIUM, Strain/Indicator: TA98, Metabolic Activation: RAT, LIVER, S-9, AROCLOR 1254 (30%), Method: PREINCUBATION
  mutagenic call: inactive; negative
Test System: AMES SALMONELLA TYPHIMURIUM, Strain/Indicator: TA100, Metabolic Activation: HAMSTER, LIVER, S-9, AROCLOR 1254 (10%), Method: PREINCUBATION
  mutagenic call: inactive; negative
Test System: AMES SALMONELLA TYPHIMURIUM, Strain/Indicator: TA100, Metabolic Activation: HAMSTER, LIVER, S-9, AROCLOR 1254 (30%), Method: PREINCUBATION
  mutagenic call: inactive; negative
Test System: AMES SALMONELLA TYPHIMURIUM, Strain/Indicator: TA100, Metabolic Activation: NONE, Method: PREINCUBATION
  mutagenic call: inactive; negative
Test System: AMES SALMONELLA TYPHIMURIUM, Strain/Indicator: TA100, Metabolic Activation: RAT, LIVER, S-9, AROCLOR 1254 (10%), Method: PREINCUBATION
  mutagenic call: inactive; negative
Test System: AMES SALMONELLA TYPHIMURIUM, Strain/Indicator: TA100, Metabolic Activation: RAT, LIVER, S-9, AROCLOR 1254 (30%), Method: PREINCUBATION
  mutagenic call: inactive; negative
Test System: AMES SALMONELLA TYPHIMURIUM, Strain/Indicator: TA1535, Metabolic Activation: HAMSTER, LIVER, S-9, AROCLOR 1254 (10 OR 30%), Method: PREINCUBATION
  mutagenic call: inactive; negative
Test System: AMES SALMONELLA TYPHIMURIUM, Strain/Indicator: TA1535, Metabolic Activation: RAT, LIVER, S-9, AROCLOR 1254 (10 OR 30%), Method: PREINCUBATION
  mutagenic call: inactive; negative
Test System: AMES SALMONELLA TYPHIMURIUM, Strain/Indicator: TA1537, Metabolic Activation: HAMSTER, LIVER, S-9, AROCLOR 1254 (10 OR 30%), Method: PREINCUBATION
  mutagenic call: inactive; negative
Test System: AMES SALMONELLA TYPHIMURIUM, Strain/Indicator: TA1537, Metabolic Activation: RAT, LIVER, S-9, AROCLOR 1254 (10 OR 30%), Method: PREINCUBATION
  mutagenic call: inactive; negative
Test System: CHINESE HAMSTER OVARY, Strain/Indicator: CHO-K1-BH4 (HGPRT)/6-THIOGUANINE, Metabolic Activation: NONE
  mutagenic call: inactive; negative
Test System: CHINESE HAMSTER OVARY, Strain/Indicator: CHO-K1-BH4 (HGPRT)/6-THIOGUANINE, Metabolic Activation: S-9
  mutagenic call: inactive; negative
Test System: E. COLI, Strain/Indicator: WP2 UVRA, Metabolic Activation: HAMSTER, LIVER, S-9, AROCLOR 1254, Method: STANDARD PLATE
  mutagenic call: inactive; negative
Test System: E. COLI, Strain/Indicator: WP2 UVRA, Metabolic Activation: HAMSTER, LIVER, S-9, Method: STANDARD PLATE
  mutagenic call: inactive; negative
Test System: E. COLI, Strain/Indicator: WP2 UVRA, Metabolic Activation: MOUSE, LIVER, S-9, AROCLOR 1254, Method: STANDARD PLATE
  mutagenic call: inactive; negative
Test System: E. COLI, Strain/Indicator: WP2 UVRA, Metabolic Activation: MOUSE, LIVER, S-9, Method: STANDARD PLATE
  mutagenic call: inactive; negative
Test System: E. COLI, Strain/Indicator: WP2 UVRA, Metabolic Activation: NONE, Method: STANDARD PLATE
  mutagenic call: inactive; negative
Test System: E. COLI, Strain/Indicator: WP2 UVRA, Metabolic Activation: RAT, LIVER, S-9, AROCLOR 1254, Method: STANDARD PLATE
  mutagenic call: inactive; negative
Test System: E. COLI, Strain/Indicator: WP2 UVRA, Metabolic Activation: RAT, LIVER, S-9, Method: STANDARD PLATE
  mutagenic call: inactive; negative
[1]
  mutagenic call: active; positive
[2]
  mutagenic call: active; positive

## COc1ccccc1/C=C/C=C(/C#N)c1ccc(Br)cc1
Test System: AMES SALMONELLA TYPHIMURIUM, Strain/Indicator: TA97A, Metabolic Activation: NONE, Method: STANDARD PLATE
  mutagenic call: active; positive

## CC(=O)c1ccc2ccccc2c1
Test System: AMES SALMONELLA TYPHIMURIUM, Strain/Indicator: TA97, Metabolic Activation: NONE, Method: PREINCUBATION
  mutagenic call: inactive; negative
Test System: AMES SALMONELLA TYPHIMURIUM, Strain/Indicator: TA97, Metabolic Activation: RAT, LIVER, S-9, AROCLOR 1254, Method: PREINCUBATION
  mutagenic call: inactive; negative
Test System: AMES SALMONELLA TYPHIMURIUM, Strain/Indicator: TA102, Metabolic Activation: NONE, Method: PREINCUBATION
  mutagenic call: inactive; negative
Test System: AMES SALMONELLA TYPHIMURIUM, Strain/Indicator: TA102, Metabolic Activation: RAT, LIVER, S-9, AROCLOR 1254, Method: PREINCUBATION
  mutagenic call: inactive; negative

## c1ccc(-c2ccc(-c3ccccc3)cc2)cc1
Test System: AMES SALMONELLA TYPHIMURIUM, Strain/Indicator: TA98, Metabolic Activation: HAMSTER, LIVER, S-9, AROCLOR 1254, Method: STANDARD PLATE
  mutagenic call: inactive; negative
Test System: AMES SALMONELLA TYPHIMURIUM, Strain/Indicator: TA98, Metabolic Activation: NONE, Method: STANDARD PLATE
  mutagenic call: inactive; negative
Test System: AMES SALMONELLA TYPHIMURIUM, Strain/Indicator: TA98, Metabolic Activation: RAT, LIVER, S-9, AROCLOR 1254, Method: STANDARD PLATE
  mutagenic call: inactive; negative
Test System: AMES SALMONELLA TYPHIMURIUM, Strain/Indicator: TA100, Metabolic Activation: HAMSTER, LIVER, S-9, AROCLOR 1254, Method: STANDARD PLATE
  mutagenic call: inactive; negative
Test System: AMES SALMONELLA TYPHIMURIUM, Strain/Indicator: TA100, Metabolic Activation: NONE, Method: STANDARD PLATE
  mutagenic call: inactive; negative
Test System: AMES SALMONELLA TYPHIMURIUM, Strain/Indicator: TA100, Metabolic Activation: RAT, LIVER, S-9, AROCLOR 1254, Method: STANDARD PLATE
  mutagenic call: inactive; negative
Test System: AMES SALMONELLA TYPHIMURIUM, Strain/Indicator: TA1535, Metabolic Activation: HAMSTER, LIVER, S-9, AROCLOR 1254, Method: STANDARD PLATE
  mutagenic call: inactive; negative
Test System: AMES SALMONELLA TYPHIMURIUM, Strain/Indicator: TA1535, Metabolic Activation: NONE, Method: STANDARD PLATE
  mutagenic call: inactive; negative
Test System: AMES SALMONELLA TYPHIMURIUM, Strain/Indicator: TA1535, Metabolic Activation: RAT, LIVER, S-9, AROCLOR 1254, Method: STANDARD PLATE
  mutagenic call: inactive; negative
Test System: AMES SALMONELLA TYPHIMURIUM, Strain/Indicator: TA1537, Metabolic Activation: HAMSTER, LIVER, S-9, AROCLOR 1254, Method: STANDARD PLATE
  mutagenic call: inactive; negative
Test System: AMES SALMONELLA TYPHIMURIUM, Strain/Indicator: TA1537, Metabolic Activation: NONE, Method: STANDARD PLATE
  mutagenic call: inactive; negative
Test System: AMES SALMONELLA TYPHIMURIUM, Strain/Indicator: TA1537, Metabolic Activation: RAT, LIVER, S-9, AROCLOR 1254, Method: STANDARD PLATE
  mutagenic call: inactive; negative
Test System: AMES SALMONELLA TYPHIMURIUM, Strain/Indicator: TA1538, Metabolic Activation: HAMSTER, LIVER, S-9, AROCLOR 1254, Method: STANDARD PLATE
  mutagenic call: inactive; negative
Test System: AMES SALMONELLA TYPHIMURIUM, Strain/Indicator: TA1538, Metabolic Activation: NONE, Method: STANDARD PLATE
  mutagenic call: inactive; negative
Test System: AMES SALMONELLA TYPHIMURIUM, Strain/Indicator: TA1538, Metabolic Activation: RAT, LIVER, S-9, AROCLOR 1254, Method: STANDARD PLATE
  mutagenic call: inactive; negative
[1]
  mutagenic call: inactive; negative. reevaluation of results: negative
[2]
  mutagenic call: active; positive. reevaluation of results: equivocal

— PubChem BioAssay AID1259407 (Chemical Carcinogenesis Research Information System (CCRIS), 2018)
